Measurements reported in patent publication US20240335464A1, “ADMINISTRATION OF STING AGONIST, CHECKPOINT INHIBITORS, AND RADIATION” (Takeda Pharmaceutical Company Limited, priority 2020, published 2024).

Legend:
[1] = tested on: CT26 murine colorectal carcinoma tumor; experiment: Study 4: CT26 subcutaneous tumor model, anti-tumor efficacy; type: in vivo, female Balb/c mice; settings: for GRI (%) Day 11: vs vehicle
Protocol: Study 4: CT26 is a murine colorectal carcinoma cell line. Eight-week-old female Balb/c mice (Jackson Labs, Maine) were inoculated subcutaneously with 0.2×10^6 CT26 tumor cells and monitored for tumor growth. Once the tumors reached an average of 100-125 mm^3, animals were irradiated with either mock irradiation or 8 Gy of focal beam irradiation (Study Day 0). Animals were then dosed intravenously with either vehicle (PBS) or 0.25 mg/kg of Compound No. 14 on a QW×3 schedule beginning on Study Day 1. Anti-mPD-1 antibody (clone RMP1-14, BioXCell) treatment was administered intraperitoneally twice weekly starting on Study Day 1 with a concentration of 10 mg/kg for 3 weeks. Animals were monitored for tumor volumes and body weight changes twice weekly throughout the study once they reached their humane endpoint. GRI was calculated on the last day with animals remaining in the vehicle group (Study Day 11).
Study 4: A 5 mg/mL stock solution of Compound No. 14 was formulated in PBS at the final concentration of 0.0667 mg/mL and administered intravenously (IV). Final doses received were 0.25 mg/kg. […] Compound No. 14 was administered on a QW schedule for 3 doses in single agent treatment group and in combination treatment groups beginning on Day 1. Dose formulation of Compound No. 14 was prepared once and utilized for dosing on each treatment day.
Anti-mPD-1 or isotype control was administered concurrent with Compound No. 14 or vehicle control on a BIW schedule for 3 doses in single agent treatment groups and in combination treatment groups.
(§1) Studies 4 and 5: Radiation treatment for Studies 4 and 5 were performed using focal beam radiation with volumentric image guidance from computer tomography scans on the SmART (Small animal image-guided radiotherapy) platform (Precision XRay Inc., North Branford, CT). Animals received 4.52 Gy/min of radiation and approximately 1.8 min was needed to reach 8 Gy dose delivery (Study 4) or […] was needed to reach 16 Gy dose delivery (Study 5). Animals were anesthetized during imaging and radiation treatment using 1-2% isoflurane.
(§2) Growth Rate Inhibition: The differences in the tumor growth trends over time between pairs of treatment groups were assessed by fitting each animal's data to a simple exponential growth model and comparing the mean growth rates of the two groups, as described in more detail below. The difference in the growth rates was summarized by the GRI, which is the reduction in growth rate experienced by the treatment group relative to that of the reference group, expressed as a fraction of the vehicle growth rate.
(§3) μT and μC are the mean tumor growth rates for the treatment and reference groups, respectively. μV is the mean tumor growth rate for the vehicle group, which in most cases is the same as the reference group.
(§4) A GRI greater than 100% is interpreted as tumor regression when the vehicle group is the same as the reference group. A negative value of the GRI means that the tumors in the treatment group grew faster than the tumors in the reference group. Statistical significance was determined using an unpaired t-test.
(§5) Tumor Growth Rate Computation: Low tumor volumes can cause problems with the data analysis, so all measurements below 25 cubic mm (including 0 values) were excluded from the analysis. After this exclusion step, the tumor volume was assumed to follow an exponential growth model. More specifically, for a given animal and treatment group,
(§6) where Vi is the tumor volume at the i^th time point. Here, a is the initial log volume, b is the tumor growth rate, and t1 is the measurement time in days. εi is the residual error term, which was assumed to be uncorrelated and drawn from a normal distribution.
This model was fit separately for each animal within each treatment group. If an animal was sacrificed or died early, but at least two unique time points were measured (including baseline), then the data up to that point was used to estimate the growth rate. […]

[2] = tested on: B16F10 ova melanoma tumor; experiment: Study 5: B16F10-Ova subcutaneous tumor model, anti-tumor efficacy; type: in vivo, female C57Bl/6 mice; settings: for GRI (%) (Day 10): vs vehicle
Protocol: Study 5: B16F10-Ova is a cell line derived from B16F10 melanoma that expresses chicken ovalbumin. Seven-week-old female C57Bl/6 mice (Jackson Labs, Maine) were inoculated subcutaneously with 0.04×10^6 B16F10 ova tumor cells and monitored for tumor growth. Once the tumors reached an average of 100-250 mm^3, animals were irradiated with either mock irradiation or 16 Gy of focal beam irradiation (Study Day 0). Animals were then dosed intravenously with either vehicle (PBS) or 0.25 mg/kg of Compound No. 14 on a Q3Dx3 scheduled beginning on Study Day 1. Animals were monitored for tumor volumes and body weight changes twice weekly throughout the study once they reached their humane endpoint. GRI was calculated on the last day with animals remaining in the vehicle group (Study Day 10).
Study 5: A 5 mg/mL stock solution of Compound No. 14 was formulated in PBS at the final concentration of 0.0667 mg/mL and administered intravenously (IV). Final doses received were 0.25 mg/kg. […] Compound No. 14 was administered on a Q3D schedule for 3 doses in single agent treatment group and in combination treatment groups beginning on Day 1. Dose formulation of Compound No. 14 was prepared once and utilized for dosing on each treatment day.
as §1, §2, §3, §4, §5, §6
This model was fit separately for each animal within each treatment group. If an animal was sacrificed or died early, but at least two unique time points were measured (including baseline), then the data up to that point was used to estimate the growth rate. If the animal had measurements at less than two time points, then the animal was automatically excluded from the analysis.
In rare cases, the estimated growth rate for one or more animals might be very different from the other animals within the same group. […]

[3] = TG02 Compound No. 14 0.25 mg/kg QWx3 IV, single agent
[4] = TG05 Compound No.14 0.25 mg/kg QWx3 IV + Radiation 8 Gy, through Day 11
[5] = TG02 Compound No.14 0.25 mg/kg Q3Dx3 IV, single agent
[6] = TG04 Compound No.14 0.25 mg/kg Q3Dx3 IV + radiation 16 Gy, through Day 10

Structure (SMILES): Nc1ncnc2c1ncn2[C@@H]1O[C@@H]2COP(=O)(S)O[C@@H]3[C@H](O)[C@@H](COP(=O)(S)O[C@H]2[C@H]1F)O[C@H]3n1cc(F)c2c(=O)[nH]cnc21 (stereo partly drawn) [Compound No. 14]
- Number of Animals Removed [1, 3]: 0
- GRI (%) Day 11 [1, 3]: 13%
- Number of Animals Removed ([1]; TG05 Compound No. 14 0.25 mg/kg QWx3 IV + Radiation 8 Gy): 0
- GRI (%) Day 11 ([1]; TG05 Compound No. 14 0.25 mg/kg QWx3 IV + Radiation 8 Gy (Day 0)): 88%
- Combination Assessment [1, 4]: Additive
- Synergy Score % [1, 4]: −12%
- Number of Animals Removed [2, 5]: 4
- GRI (%) (Day 10) [2, 5]: 11%
- Number of Animals Removed ([2]; TG04 Compound No.14 0.25 mg/kg Q3Dx3 IV + radiation 16 Gy): 0
- GRI (%) (Day 10) ([2]; TG04 Compound No.14 0.25 mg/kg Q3Dx3 IV + radiation 16 Gy (Day 0)): 67%
- Combination Assessment [2, 6]: Additive
- Synergy Score % [2, 6]: −21%
